These results are taken from PMC6968383, “Design, synthesis, in vitro and in vivo evaluation of benzylpiperidine-linked 1,3-dimethylbenzimidazolinones as cholinesterase inhibitors against Alzheimer’s disease” (Journal of Enzyme Inhibition and Medicinal Chemistry, 2019).

One series concerns HepG2 cells. The series is described as follows: In vitro hepatotoxicity on HepG2 cell line (MTT). The class given is cell-based. To be noted: 5, 15, 50 µM, 24 h, compared to donepezil. On the procedure: (§1) PC12 cell and HepG2 cell (human hepatocellular liver carcinoma cell line purchased from Institute of Materia of Chinese Academy of Medical Science), were grown in DMEM supplemented with 10% FBS at 37 °C in a humidified atmosphere containing 5% CO2. For the experiments, cells (6 × 10^3 cells/well) were seeded in 96-well plate in complete medium. […]

The next series relates to PC12 cells. Briefly: Neuroprotection against H2O2-induced cell death in PC12 cells. The series is classed as cell-based. To be noted: PC12 cells pre-treated 24 h, 800 µM H2O2. The protocol:
We evaluated the cytoprotective effects of 15b and 15j on H2O2-induced cell damage. Treatment with 800 µM H2O2 for 24 h caused over 55% death rate of PC12 cells compared with the control group (Supplementary Figure S2(A)).
Figure S1. (A) The inhibitory effect of 15b and 15j on i Aβ1-42 self-aggregation. (B) […]
1.3. Neuroprotection assay against H2O2-induced cell death in PC12 cells Cytotoxicity was determined by using 3-(4,5-dimethylthiazol-2-yl)-2,5-diphenyltetrazoliumbromide (MTT) assay. The PC-12 cell line was purchased from Cell Bank of the Chinese Academy of Sciences (Shanghai, China). MTT was purchased from Sigma (M2128, St. Louis, MO). It was dissolved in phosphate buffered saline (PBS) to a stock concentration of 5 mg mL-1 and stored at - 20 °C. PC-12 cells were plated in 96-well plates, raised to a population of 1 × 10^4 cells per well, and incubated overnight. […]
Then the solution was removed and 150.0 μL of DMSO was added into each well to dissolve the MTT formazan crystals. […] The absorbance values (OD value) were read at 570 nm by microplate reader (Thermo, Varioskan Flash 3001, USA). The inhibitory rate for each concentration of the test compound was calculated by the equation as follows: […]
Here, ODtest, ODblank, and ODcontrol stand for the OD value from test compound, background, and DMSO, respectively. The IC50 values were calculated by GraphPad […]

The next series deals with T1, Aβ1–42 (Homo sapiens, UniProt P05067).
T1 construct: self-induced Aβ1–42 aggregation; purchased Anaspec Inc. AS-64129–05
Briefly: Inhibition of self-induced Aβ1–42 aggregation (thioflavin T). The class given is biochemical. To be noted: under 50 µM, ThT fluorometric assay. On the procedure:
Compounds 15b and 15j were evaluated for their inhibitory capacity on self-induced Aβ1–42 aggregation based on a thioflavin T-based fluorometric assay. […]
Corresponding Authors: clarissa0710@163.com (Y. Chen); sunhaopeng@163.com (H. P.
1.1. Inhibition of self-induced Aβ1–42 aggregation
Inhibitory effect of the compounds on self -induced Aβ1–42 aggregation was determined through a thioflavin T (ThT)-(T3516, Sigma-Aldrich) binding assay.
Firstly, aliquots of 2 μL of Aβ 1–42 (AS-64129–05 Anaspec Inc.) containing 2 mg/mL HFIP (1,1,1,3,3,3-hexafluoro-2-propanol, 52517 (Sigma-Aldrich) were stocked in DMSO).
Then, they were diluted with 0.215M sodium phosphate buffer (pH 8.0) to the final concentration of 500 μM. Test compounds were dissolved in DMSO and then prepared at a concentration of 50 μM by the buffer. Resveratrol was used as a positive control. […]
Fluorescence intensity was read (excitation wavelength 450 nm, emission wavelength 485 nm) on a microplate reader (Thermo, Varioskan Flas h 3001, USA).
The calculation of the inhibitory rate of Aβ 1–42 self-induced aggregation was performed using the following equation: (1 -IFi/IFc) × 100 %. IFi and IFc were the fluorescence intensities measured in the presence and absence of inhibitors, respe ctively, after subtracting the background fluorescence of the 5mM ThT solution. Each compound was measured in triplicate. […]

Series [1] addresses T2, BChE (EC 3.1.1.8) from human (Homo sapiens, UniProt P06276).
T2 construct: purchased Sigma-Aldrich
Briefly: human BChE inhibition assay, Ellman's method. The class given is biochemical. The settings on record: mean ± SEM, read-out: huBChE IC50. The protocol:
; The inhibitory activities of the target compounds towards AChE (from Electrophorus electricus (electric eeAChE, Sigma-Aldrich) and horse serum BChE (eqBChE, Sigma-Aldrich) or human AChE – huAChE; human BuChE – huBuChE (huAChE, huBuChE, Sigma-Aldrich) were measured by Ellman’s method. In 96-well plates, a mixture of phosphate buffer (0.1 M, pH 8.0, […]), 5,5′-dithiobis-2-nitrobenzoic acid (DTNB, 60 µL), acetylcholinestrase or butyrylcholinesterase (20 µL, 5 IU/mL) and different concentration of the compound solution (30 µL) was pre-incubated for 5 min followed by the addition of the substrate (acetylthiocholine iodide or butyrylthiocholine iodide, 20 µL). Changes in absorbance were measured at 412 nm by using microplate reader (Thermo, Varioskan Flash 3001, USA). The measurement of each concentration for each compound was detected in triplicate. GraphPad Prism 6.0 (GraphPad Software, Inc., La Jolla, CA) was used for data processing. The inhibition curve was fitted by plotting percentage enzyme activity (100% for the reference) versus the logarithm of the concentration of tested compound. The half-maximal inhibitory concentration (IC50) values were calculated according to the inhibition curve and the data were shown in the layout of mean ± SEM by GraphPad Prism 6.0.
In general terms: In Ellman's method for cholinesterases, released thiocholine reacts with DTNB.

A further series deals with PC-12 cells. The series is described as follows: In vitro cell toxicity on PC-12 cell line (MTT). The class given is cell-based. To be noted: 10, 20, 30 and 50 µM, 24 h.
From the text: We focussed on the cell toxicity of the synthesised compounds. Compounds 15b and 15j were selected as representative compounds for the evaluation of their potential cytotoxic effects.
Figure 4. (A) In vitro cell toxicity of 15b and 15j on PC-12 cell line. (B) In vitro hepatotoxicity of 15b and 15j on HepG2 cell line. Data were expressed as mean ± SD (n = 3).
as §1

Another series deals with liver. The series is described as follows: Liver histopathological study (HE staining). To be noted: 36 h after administration, compared to control group. From the text: Figure 7. […] HE staining, original magnification ×200.

T2 sequence (P06276 29-602): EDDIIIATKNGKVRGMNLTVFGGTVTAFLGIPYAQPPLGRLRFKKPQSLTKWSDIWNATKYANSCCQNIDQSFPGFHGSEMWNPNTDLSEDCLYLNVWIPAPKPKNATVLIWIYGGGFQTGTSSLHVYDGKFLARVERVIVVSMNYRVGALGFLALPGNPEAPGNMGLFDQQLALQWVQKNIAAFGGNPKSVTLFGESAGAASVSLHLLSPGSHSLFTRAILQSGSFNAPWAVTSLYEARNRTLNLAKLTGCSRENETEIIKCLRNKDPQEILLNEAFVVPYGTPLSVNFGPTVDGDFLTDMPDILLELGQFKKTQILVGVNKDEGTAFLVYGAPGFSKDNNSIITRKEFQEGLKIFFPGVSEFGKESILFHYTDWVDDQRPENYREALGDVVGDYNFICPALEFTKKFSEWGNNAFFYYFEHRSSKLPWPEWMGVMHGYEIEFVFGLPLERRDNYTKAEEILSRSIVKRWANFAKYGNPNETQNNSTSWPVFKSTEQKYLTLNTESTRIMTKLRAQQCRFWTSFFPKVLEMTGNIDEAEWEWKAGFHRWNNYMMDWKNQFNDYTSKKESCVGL
T1 sequence (P05067 672-713): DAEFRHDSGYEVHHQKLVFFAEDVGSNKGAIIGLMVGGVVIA

One may read the IC50 as the concentration needed to halve the response being measured. For `Cc1ccccc1CN1CCC(CNS(=O)(=O)c2ccc3c(c2)n(C)c(=O)n3C)CC1` [Compound 15b, 1,3-dimethyl-N-((1–(2-methylbenzyl)piperidin-4-yl)methyl)-2-oxo-2,3-dihydro-1H-benzo[d]imidazole-5-sulphonamide], the “toxicity on HepG2 cell viability” value with HepG2 cells is on record as “low toxicity on cell viability”. Besides, in the series with PC12 cells, the “cytoprotective effect on H2O2-induced cell damage” value is “the mortality rate of PC12 cells caused by H2O2 was reduced”. For the same compound, the “inhibition of self-induced Aβ1–42 aggregation” value against Aβ1–42 is given as “no inhibitory activities”. In series [1], the IC50 was 1330 ± 550 nM. Also, in the series with PC-12 cells, the “cytotoxicity to PC-12 cells” value is “no cytotoxicity”. For the same compound, the “morphologic changes in liver” value with liver was “did not result in remarkable morphologic changes in liver”.

For the compound `Cn1c(=O)n(C)c2cc(S(=O)(=O)NCC3CCN(Cc4cccc(Br)c4)CC3)ccc21` [Compound 15j, N-((1–(3-bromobenzyl)piperidin-4-yl)methyl)-1,3-dimethyl-2-oxo-2,3-dihydro-1H-benzo[d]imidazole-5-sulphonamide], in the series on HepG2 cells, the “toxicity on HepG2 cell viability” value is “low toxicity on cell viability”. Also, in the series with PC12 cells, the “cytoprotective effect on H2O2-induced cell damage” value is recorded as “the mortality rate of PC12 cells caused by H2O2 was reduced”. Besides, at Aβ1–42, the “inhibition of self-induced Aβ1–42 aggregation” value was “no inhibitory activities”. Moreover, in series [1], the IC50 came to 660 ± 220 nM. Further, in the series with PC-12 cells, the “cytotoxicity to PC-12 cells” value is reported as “no cytotoxicity”. In addition, the “morphologic changes in liver” value in the series with liver is “did not result in remarkable morphologic changes in liver”.
